Experimental data reported in a melting point compilation (Tetko et al.; mined from patent text by program, amines drawn as free bases though some values may be those of a salt).

Row | melting point [°C] | Compound
1 | 230 to 234 | Cc1cc(C(O)C[N+](=O)[O-])cc(C)c1Oc1ccc([N+](=O)[O-])c(Nc2ccc(C#N)cc2)n1 (stereo not drawn)
2 | 43.2 to 43.6 | CCCCCCCCC(=O)Oc1ccc(-c2ccc(C#N)cc2)cc1
3 | 133 | COc1ccccc1C(=O)NCCc1ccc(-c2ccc(OC(C)(C)C(=O)O)cc2)cc1
4 | 166 to 167 | O=C(O)CC=CC12CC(c3ccccc31)c1ccccc12
5 | 259 to 260 | O=C(Nc1ccc(C(F)(F)F)cc1)N1CC(NC(=O)C(F)(F)F)C(c2ccc(Cl)cc2)=N1 (stereo not drawn)
6 | 60 to 61 | CC(C)C(C)(C(=O)NCCc1ccccn1)C(C)C
7 | 219 to 220 | Cc1ccc(-c2ccc3c(c2)C=C(C(=O)Nc2ccc(CN4CCCCC4)cc2)C3)cc1
8 | 73 to 74 | CSc1ccc(C(=O)C#CCO)cc1
9 | 184 to 185 | Cc1nc(N2CCN(Cc3ccc(OC(F)(F)F)cc3)C2=O)sc1C(=O)NCCc1ccccc1
10 | 98 to 99 | COC(=O)c1cncc(-c2ccc(OC)c(N)c2)c1
11 | 90 to 92 | CCC(CC)C(NS(=O)(=O)c1ccc(Cl)s1)c1ccnn1Cc1ccc(O)cc1 (stereo not drawn)
12 | 203 to 204 | Cc1oc(-c2ccccc2)nc1COc1ccc(CCc2nnn[nH]2)cc1
13 | 73 to 75 | O=C(CCc1c[nH]c2ccccc12)NCc1ccccc1
14 | 122 to 125 | CC(=Cc1ccc(F)c(F)c1)C(=O)O
15 | 148 to 150 | O=C(O)Cc1cccc2nnsc12
16 | 185 | CCNC(=O)c1ccc(-n2nnc(C(=O)NC3CC3)c2CO)c(O)c1

Row | melting point [°C] | Compound
17 | 196 to 198 | Nc1ccc(C(Cc2ccccc2)C(=O)O)cc1 (stereo not drawn)
18 | 131 to 133 | O=C(O)CCC(=O)c1c(-c2ccccc2)cc2ccccn12
19 | 185 to 188 | Nc1ccc(NC(=O)N(C[C@H]2CC[C@H](CN(C(=O)Nc3ccc(N)cc3)C3CCCCC3)CC2)C2CCCCC2)cc1
20 | 226 to 227 | COc1cc(Nc2ccccn2)ccc1C(N)=O
21 | 123 to 125 | CCCC1=C(C(=O)OCC)C(c2ccoc2C)c2c[nH]nc2N1 (stereo not drawn)
22 | 79 to 81 | COc1ccc(CN2CCC(COc3ccc(F)cc3)CC2)cc1
23 | 80 to 81 | COc1ccccc1N1CCN(CCCCN2CSCC2=O)CC1
24 | 143 to 145 | O=C(NCCCCNS(=O)(=O)c1ccc(Oc2ccccc2)cc1)P(=O)(O)O
25 | 76 to 78 | CCCc1c(OCCCCC(=O)NCCCCc2cccnc2)ccc(C(C)=O)c1O
26 | 128 to 131 | CCc1cccc(CNC[C@@H](O)[C@H](Cc2cc(F)cc(F)c2)NC(=O)c2ccc(CS(C)(=O)=O)s2)c1
27 | 159 to 161 | CC(C)(C)C(=O)OCOC(=O)Cc1ccc(O)cc1
28 | 75 to 76 | C=C(C(=O)OC)C(=O)c1ccc(OC)cc1
29 | > 360 | CCCC(=O)Nc1cnc2cccnc2c1O
30 | 146 to 148 | COC(=O)CCc1ccc(NC(=O)NNC=O)cc1
31 | 198 to 200 | COC(=O)Cn1c(-c2ccc(Cl)cc2)nc2cccnc21
32 | 85 | CC(=O)c1c(C)nc(C)c(C(=O)OCCC#N)c1-c1cccc([N+](=O)[O-])c1

Further lines, the compound ahead of its results:

Row | Compound | melting point [°C]
33 | Nc1nc2ccccc2c2c1ncn2CCO | 260 to 262
34 | COC(=O)c1ccc2c(c1)Sc1ccccc1N=C2Cl | 134 to 136
35 | Nc1ccc2nccnc2c1Br | 155 to 156
36 | CCCCCCCCCCCC1CC(=O)C(CCCCCC)C(=O)O1 (stereo not drawn) | 112 to 114
37 | CC1(C)CC2(CC(C)(C)c3ccc(Oc4ccc([N+](=O)[O-])cc4)cc32)c2cc(Oc3ccc([N+](=O)[O-])cc3)ccc21 | 200 to 202
38 | O=S1NC(Cc2cc3cc(F)ccc3o2)=NO1 (stereo not drawn) | 144 to 145
39 | CSCCCOc1nc(-c2ccc(F)cc2C)c2ccc(=O)n(-c3c(F)cccc3F)c2n1 | 127 to 128
40 | Clc1cc(Cl)cc(C=C2CCC3(CC2)OCCO3)c1 | 66
41 | C#Cc1cn(C2CC(O)C(COC(=O)C(C)(C)C)O2)c(=O)[nH]c1=O (stereo not drawn) | 64 to 66
42 | ClC1(Cl)C(c2ccccc2)C1(c1ccccc1)c1ccccc1 (stereo not drawn) | 106 to 107
43 | CCn1cc(-c2sc(NC(=O)c3ccncc3)nc2-c2ccco2)ccc1=O | 285 to 289
44 | Cn1nc(-c2ccccc2)c(N=O)c1N | 230 to 231
45 | CC(C(=O)N(C)C)n1cc(Cl)c(-c2ccccc2)n1 (stereo not drawn) | 73.5 to 75
46 | C/C=C\Cn1c(Oc2cc(C)cc(C)c2)c(C(C)C)c(=O)[nH]c1=O | 141 to 142
47 | N#Cc1ccc(-c2cccc(-c3nc4ccc(C#N)cc4[nH]3)n2)cc1 | 311 to 312
48 | O=C(NCC1CCCCC1)[C@@H]1CCCN(c2cccc3c2C(=O)N(Cc2ccncc2)C3=O)C1 | 172 to 173
49 | OCCNc1nc(NCc2ccccc2)c2ncc(Nc3ncncn3)cc2n1 | 202 to 203
50 | CN(C=O)CC1(N(C)C)CCCCC1 | 59 to 60
51 | Nc1cc(C(F)(F)F)c(-c2cc(Br)c(N)cc2C(F)(F)F)cc1Br | 154 to 157
52 | COc1ccc(-n2nc3c(-c4ccccc4)c(C)[nH]cc-3c2=O)cc1 | 300 to 310
53 | COc1ccccc1COc1ccc(S(=O)(=O)c2ccc(C)nc2Nc2c(C)cc(C)cc2C)cc1 | 148 to 150
54 | CC(=O)c1ccc(-c2ccc(Br)cc2C)cc1 | 84 to 86
55 | COc1ccc(-c2cc(=O)n(CC3CC3)nc2-c2ccc(OC)c(F)c2)cc1F | 142 to 143
56 | CN(c1ccc(C2CCCCC2)cc1)c1nc(=O)c2cccnc2s1 | 192 to 195

Row | Compound | melting point [°C]
57 | NC(=O)Cn1c(-c2ccc(Cl)cc2)nc2cccnc21 | 270 to 271
58 | O=C1[C@@H]2CSC(c3ccccc3)N2C(=O)N1Cc1ccccc1 (stereo partly drawn) | 79
59 | O=c1nc(-c2cccc(Cl)c2)c2cc(C(c3ccc(Cl)cc3)n3ccnc3-c3ccccc3)ccc2[nH]1 (stereo not drawn) | 170
60 | CCOc1cnc(N[N+](=O)[O-])[nH]c1=O | 189 to 192
61 | COc1ccc2c(c1)C(C1CCC1)=NCC2 | 44 to 46
62 | COc1ccc(C=CC(=O)c2ccc(OCC(O)CN3CCN(c4ccccc4)CC3)cc2)cc1OC (stereo not drawn) | 126 to 127
63 | CC(=O)C=CC1=C(C)C(=O)CCC1(C)C | 50 to 51
64 | CC(C)(c1ccc(Oc2cccc([N+](=O)[O-])c2)cc1)c1ccc(Oc2cccc([N+](=O)[O-])c2)cc1 | 111 to 113
65 | Nc1nc(-c2ccc(CCN3CCN(c4cccc5cccnc45)CC3)cc2)cs1 | > 225
66 | CC(/C=C/c1c(C)sc(C)c1C)=C(F)\C=C\C(C)=C\C(N)=O | 212 to 215
67 | OC(C(c1cccc(Cl)c1)n1ccnc1)C12CC3CC(CC(C3)C1)C2 (stereo not drawn) | 115
68 | CC(C)OC(=O)c1cc(N=c2sc(=O)n3n2CCCC3)c(F)cc1F | 86 to 88
69 | O=[N+]([O-])c1ccc(OC2CCCC2)cc1NC1CCCCC1 | 98
70 | COc1ccc2cnoc2c1Cl | 115 to 118
71 | Cc1cc(Cl)cc(Cl)c1S(=O)(=O)Nc1nc(CC(=O)N2CCOCC2)c(C)s1 | 186 to 187
72 | CNC(=O)[C@@H](C[C@H](O)[C@H](CC(C)C)NC(=O)OC(C)(C)C)C(C)(C)O | 121 to 123
73 | O=C1CCC(=O)N1Cc1nc2sc3c(c2c(-c2ccc(O)cc2)c1Cl)CCS(=O)C3 (stereo not drawn) | 274 to 276
74 | Cc1sc(S(=O)(=O)NC(C)(C)CO)cc1[N+](=O)[O-] | 118
75 | COCCCc1ccc(CNC(=O)[C@@H](COC)NC(C)=O)cc1 | 105 to 107
76 | N#Cc1cc2ccccc2[nH]1 | 94 to 95
77 | CCOc1ncnc(OCC)c1NC(N)=S | 212
78 | Nc1ccc(Cl)c(S(=O)c2ccccc2)c1 (stereo not drawn) | 152 to 155
79 | CCOC(=O)c1cccc(-c2nc(-c3ccc(C(C)C)cc3)cs2)c1 | 91 to 92
80 | CC1CCN(C(=O)[C@H](CCCNc2ncccn2)NS(=O)(=O)c2ccc3ccccc3c2)CC1 | 98 to 100

Row | Compound | melting point [°C]
81 | O=[N+]([O-])c1ccc2c(c1)CCNCC2 | 53 to 56
82 | O=C(OC1CCCCC1)c1ncn2c1[C@@H]1CCCN1C(=O)c1c(Cl)cccc1-2 | 166 to 167
83 | O=c1ccc2cn(C3OC(CO)C(O)C3O)c(=O)[nH]c-2n1 (stereo not drawn) | 189 to 190
84 | Nc1nc(-n2cc(C(=O)O)c(=O)c3cc(F)c(N4CC(O)C4)c(Br)c32)c(F)cc1F | 215 to 220
85 | CN1CCC=C(c2nnn(C)n2)C1 | 86 to 87
86 | CCOC(=O)c1cn(-c2c(F)cc(F)c([N+](=O)[O-])c2F)c2c(Cl)c(F)c(F)cc2c1=O | 167 to 169
87 | COc1cc2c(cc1Cl)CCN(C)CC2c1ccc(I)cc1 (stereo not drawn) | 130 to 132
88 | Cc1cc2c(c(C)c1NCc1ccccc1)CC(C)(C)O2 | 80 to 81
89 | COCOCC(=O)C1CCC2C3CCC4=CC(=O)CCC4(C)C3CCC12C (stereo not drawn) | 195
90 | CCCCCCn1cnc2cnc3ccccc3c21 | 75 to 77
91 | CC(C)(C)NC(=O)c1nc(Cl)c(Cl)[nH]1 | 218
92 | CCOc1cc(S(=O)(=O)CC)ccc1-c1nc2ncccc2[nH]1 | 207 to 208
93 | CS(=O)(=O)c1ccc(-c2cnn(CC(F)(F)F)c(=O)c2N)cc1 | > 260
94 | CCCCCCCCCCOc1ccc(-c2nc3ccc(C(=O)O)cc3o2)cc1C12CC3CC(CC(C3)C1)C2 | 200 to 201
95 | CC1c2ccccc2Nc2nccn21 (stereo not drawn) | 171 to 172
96 | CC(C)(C)C(O)(C=Cc1ccc(C2OCCO2)cc1)Cn1cncn1 (stereo not drawn) | 110
97 | O=C1c2ccccc2N(c2ccccc2)CN1O | 156 to 160
98 | CC(Br)C(=O)NS(=O)(=O)c1ccc2c(c1)CC(C)(C)O2 (stereo not drawn) | 125 to 128
99 | CCCCOc1nc(N)c2[nH]c(=O)n(CCCCN(Cc3cccc(CC(=O)O)c3)CC(C)(C)CN(C)C)c2n1 | 189 to 190
100 | Cc1ncc2c(c1OCC(=O)O)COC2c1ccccc1 (stereo not drawn) | 220
101 | CCOC(=O)c1c(SC)nc(-c2ccc(SC)cc2)n(-c2ccc(F)cc2)c1=O | 151 to 155
102 | CCOc1ccc2cc(-c3nn(C(C)c4oc5ccccc5c(=O)c4-c4cccc(F)c4)c4ncnc(N)c34)ccc2c1 (stereo not drawn) | 286 to 290
103 | O=Cc1cc(Cl)cc2c1OCCC2 | 83 to 86
